Reference: patent US7750169B2 (Biocodex, priority 2008, dated 2010)

Assay: particle size distribution measured under wet conditions (Malvern Mastersizer 2000 SM)
Type: physicochemical
Details: stiripentol particles of Example 1 after double recrystallization from toluene
Method: This particle size distribution is measured under wet conditions.

Diameter of 90% of the particles (d90): ≤ 250 μm
Structure (SMILES): CC(C)(C)C(O)/C=C/c1ccc2c(c1)OCO2 (stereo not shown) [stiripentol, 4-dimethyl-1-[(3,4-methylenedioxy)-phenyl]-1-penten-3-ol]
